The source of these data is patent US20050019386A1 (priority 2001, published 2005).

In assay [1] the test system is ovarian carcinoma (human) on a nude mouse. Description: Oral application, tumour mass of human ovarian carcinoma on nude mouse. It is filed as in vivo. To be noted: oral form of administration, Taxol 50 mg bolus.
The subject of assay [2] is two human glioblastoma in a nude model. To be noted: free form, 12.5 mg/kg/4 days; cited from earlier work.

As to `CC(=O)O[C@H]1C(=O)[C@@]2(C)[C@H]([C@H](OC(=O)c3ccccc3)[C@]3(O)C[C@H](OC(=O)[C@H](O)[C@@H](NC(=O)c4ccccc4)c4ccccc4)C(C)=C1C3(C)C)[C@]1(OC(C)=O)CO[C@@H]1C[C@@H]2O` [unencapsulated taxol, paclitaxel], the “effectivity determined on the basis of the tumour mass” value in assay [1] is “hardly being reduced”. The “growth of the tumour” value in assay [2] is listed as “significant reduction of the growth of the tumour”.
